Data as given in paper PMC6736568, “Discovery of Novel Anti-cryptosporidial Activities From Natural Products by in vitro High-Throughput Phenotypic Screening” (Frontiers in Microbiology, 2019).
Like-named read-outs stand apart in the source and are kept apart here.

Key:
Cryptosporidium parvum = experiment: qRT-PCR assay of the growth of C. parvum in vitro in HCT-8 host cells (primary and secondary screening, EC50); assay type: cell-based; conditions: for % Inhibition (3.3 uM): secondary screening at 3.3 uM
[1] = primary screening at 10 uM, from Hs18S ΔCT
[2] = primary screening at 10 uM, treated vs control

| SMILES | Inhibition (%) (Cryptosporidium parvum; primary screening at 10 uM) | Cytotoxicity (%) (HCT-8 host cells (Hs18S); [1]) | Hs18S ΔCT (HCT-8 host cells (Hs18S); [2]) | Hs18S ΔCT (HCT-8 host cells (Hs18S)) | Cytotoxicity (%) (HCT-8 host cells (Hs18S); 10 µM) | Inhibition (%) (Cryptosporidium parvum; 10 µM) | % Inhibition (3.3 uM) (Cryptosporidium parvum) [%] |
| --- | --- | --- | --- | --- | --- | --- | --- |
| COc1cc2oc3cc(OC)c(OC)c(CC=C(C)C)c3c(=O)c2c(O)c1CC=C(C)C [1-HYDROXY-3,6,7-TRIMETHOXY-2,8-DIPRENYLXANTHONE] | -18.05 | 7.7 | 0.12 | – | – | – | – |
| C[C@@H](N)[C@@H](O)c1ccccc1 [1R,2S-PHENYLPROPYLAMINE] | -7.00 | – | – | -0.16 | -12.0 | – | – |
| COc1cc(O)c(C(=O)/C=C/c2ccc(OC)c(O)c2)c(OC)c1 [2',3-DIHYDROXY-4,4',6'-TRIMETHOXYCHALCONE] | -6.64 | -22.2 | -0.29 | – | – | – | – |
| COc1ccc(/C=C/C(=O)c2ccc(O)cc2O)cc1 [2',4'-DIHYDROXY-4-METHOXYCHALCONE] | 14.88 | -99.8 | -1.00 | – | – | – | – |
| O=C(/C=C/c1ccc(O)cc1)c1ccccc1O [2',4-DIHYDROXYCHALCONE] | -21.40 | 8.3 | 0.13 | – | – | – | – |
| COc1ccc(/C=C/C(=O)c2cc(O)ccc2O)cc1 [2',5'-DIHYDROXY-4-METHOXYCHALCONE] | – | – | – | -0.46 | -37.7 | -23.93 | – |
| COc1ccc(-c2oc3cc(OC)c(OC)c(OC)c3c(=O)c2OC)cc1 [3,4',5,6,7-PENTAMETHOXYFLAVONE] | -9.57 | 15.6 | 0.24 | – | – | – | – |
| COc1ccc(-c2oc3ccccc3c(=O)c2OC)cc1 [3,4'-DIMETHOXYFLAVONE] | -22.87 | 22.3 | 0.36 | – | – | – | – |
| CC1(C)CC2C1CC[C@]1(C)CCC3C(C(=O)O)CC(=O)O[C@@]32C1 (stereo partly shown) [3-HYDROXY-4-(SUCCIN-2-YL)-CARYOLANE delta-LACTONE] | 51.45 | 28.8 | 0.49 | – | – | – | – |
| NCCc1ccc(O)c(O)c1 [3-HYDROXYTYRAMINE] | – | – | – | 0.76 | 41.1 | – | 6 |
| CC(=O)OC1CCC2(C)C(CC(OC(C)=O)C3(C)C4=CC(=O)OC(c5ccoc5)C4(C)CCC23)C1(C)C (stereo not drawn) [3alpha-ACETOXYDIHYDRODEOXYGEDUNIN] | – | – | -0.24 | – | – | – | 25 |
| CC(C(=O)O)[C@H]1CCC2C3CC=C4C[C@@H](O)CC[C@]4(C)C3CC[C@@]21C (stereo partly drawn) [3beta-HYDROXY-23,24-BISNORCHOL-5-ENIC ACID] | -20.26 | -63.2 | -0.71 | – | – | – | – |
| CC(=O)O[C@@H]1CC2C(C)(CC[C@H](O)C2(C)C)C2CC[C@]3(C)C(=CC(=O)O[C@H]3c3ccoc3)C21C (stereo partly drawn) [3beta-HYDROXYDEOXODIHYDRODEOXYGEDUNIN] | 77.26 | -19.7 | -0.26 | – | – | – | -21 |
| C[C@@H]1CC[C@@]2(OC1)O[C@H]1C[C@H]3[C@@H]4CC[C@H]5C[C@@H](O)CC[C@]5(C)C4=CC[C@]3(C)[C@H]1[C@@H]2C [3beta-HYDROXYISOALLOSPIROST-9(11)-ENE] | 6.79 | -12.6 | -0.17 | – | – | – | – |
| COc1cc(O)c(C(C)=O)c(O)c1 [4-O-METHYLPHLORACETOPHENONE] | 2.57 | 10.4 | 0.16 | – | – | – | – |
| COc1ccc(-c2cc(=O)c3c(O)cc(OC)c(OC)c3o2)c(OC)c1 [5-HYDROXY-2',4',7,8-TETRAMETHOXYFLAVONE] | 89.23 | 13.2 | 0.20 | – | – | – | -83 |
| C[C@]12CCC(=O)C[C@@H]1CC[C@@H]1[C@@H]2CC[C@]2(C)C(=O)CC[C@@H]12 [5alpha-ANDROSTAN-3,17-DIONE] | -13.88 | -0.1 | 0.00 | – | – | – | – |
| CC(C)CCC[C@@H](C)[C@H]1CC[C@H]2[C@@H]3CC[C@H]4C[C@@H](O)CC[C@]4(C)[C@H]3CC[C@]12C [5alpha-CHOLESTANOL] | -23.23 | -2.4 | -0.03 | – | – | – | – |
| O=c1cc(-c2ccc(O)cc2)oc2ccc(O)cc12 [6,4'-DIHYDROXYFLAVONE] | 28.18 | 17.9 | 0.28 | – | – | – | – |
| COc1cc2occ(-c3ccc(OC)c(OC)c3OC)c(=O)c2cc1OC [6,7,2',3',4'-PENTAMETHOXYISOFLAVONE] | 39.55 | -30.1 | -0.38 | – | – | – | – |

| SMILES | Inhibition (%) (Cryptosporidium parvum; primary screening at 10 uM) | Cytotoxicity (%) (HCT-8 host cells (Hs18S); [1]) | Hs18S ΔCT (HCT-8 host cells (Hs18S); [2]) | Hs18S ΔCT (HCT-8 host cells (Hs18S)) | Cytotoxicity (%) (HCT-8 host cells (Hs18S); 10 µM) | Inhibition (%) (Cryptosporidium parvum; 10 µM) | % Inhibition (3.3 uM) (Cryptosporidium parvum) [%] |
| --- | --- | --- | --- | --- | --- | --- | --- |
| O=c1cc(-c2ccccc2O)oc2cc(O)ccc12 [7,2'-DIHYDROXYFLAVONE] | -16.96 | 12.6 | 0.19 | – | – | – | – |
| COc1ccc(-c2coc3cc(OC)ccc3c2=O)cc1 [7,4'-DIMETHOXYISOFLAVONE] | 1.31 | 3.0 | 0.04 | – | – | – | – |
| CC(=O)OCC1=C(C(=O)O)N2C(=O)[C@@H](N)[C@H]2SC1 [7-AMINOCEPHALOSPORANIC ACID] | -11.44 | 12.1 | 0.19 | – | – | – | – |
| CC(=O)O[C@H]1C[C@@H](OC(C)=O)C(C)(C)C2CC(=O)[C@]3(C)C(CC[C@@]4(C)[C@H](c5ccoc5)OC(=O)[C@H]5O[C@]543)[C@]21C (stereo partly shown) [7-DEACETOXY-7-OXOKHIVORIN] | 40.16 | 13.5 | 0.21 | – | – | – | – |
| CC(=O)O[C@@H]1C[C@]2(C)[C@@H](C(C)=O)CC[C@H]2[C@@H]2CCC3=CC(=O)CC[C@]3(C)[C@H]21 [11a-ACETOXYPROGESTERONE] | 10.83 | -16.6 | -0.22 | – | – | – | – |
| CC(=O)Oc1ccc2c(C)cc(=O)oc2c1 [ACETYL HYMETOCHROME] | -35.81 | -4.5 | -0.06 | – | – | – | – |
| CNCC(=O)c1ccc(O)c(O)c1.Cl [ADRENOLONE HYDROCHLORIDE] | 26.43 | -16.6 | -0.22 | – | – | – | – |
| CCCCCCCCCCCCCCCCC(C(=O)O)C(O)(CC(=O)O)C(=O)O (stereo not shown) [AGARIC ACID] | -4.50 | 18.9 | 0.30 | – | – | – | – |
| O=C(O)CCCCCCCC(O)C(O)CCCCCCO (stereo not shown) [ALEURETIC ACID] | 36.82 | – | – | 0.24 | 15.2 | – | – |
| C[C@]12C=CC(=O)C=C1CC[C@@H]1[C@@H]2CC[C@]2(C)C(=O)CC[C@@H]12 [ANDROSTA-1,4-DIEN-3,17-DIONE] | 15.07 | 0.7 | 0.01 | – | – | – | – |
| Br.CN1[C@H]2C[C@H](OC(=O)[C@H](CO)c3ccccc3)C[C@@H]1[C@@H](O)C2 [ANISODAMINE HYDROBROMIDE] | 5.51 | -32.6 | -0.41 | – | – | – | – |
| COc1cc2c(cc1OC)-c1c(oc3cc(O)cc(O)c3c1=O)CO2 [APOTOXICAROL] | 1.64 | 10.7 | 0.16 | – | – | – | – |
| CN[C@@H]1[C@@H](O[C@H]2O[C@H](CO)[C@@H](N)[C@H](O)[C@H]2O)O[C@H]2C[C@@H](N)[C@@H](O[C@H]3[C@H](O)[C@@H](O)[C@H](N)C[C@@H]3N)O[C@@H]2[C@@H]1O.O=S(=O)(O)O [APRAMYCIN SULFATE] | 42.68 | -3.1 | -0.04 | – | – | – | – |
| OC[C@@H](O)C(O)[C@H](O)CO [ARABITOL] | 8.73 | -2.6 | -0.04 | – | – | – | – |
| CC(C)(O)[C@@H]1CC[C@](C)([C@H]2[C@@H](O)C[C@@]3(C)[C@@H]4C[C@H](O[C@@H]5O[C@H](CO)[C@@H](O)[C@H](O)[C@H]5O)[C@H]5C(C)(C)[C@@H](O[C@@H]6OC[C@@H](O)[C@H](O)[C@H]6O)CC[C@@]56C[C@@]46CC[C@]23C)O1 [ASTRAGALOSIDE IV] | -18.98 | -14.1 | -0.19 | – | – | – | – |
| C=CCCCCCCCCCCCC(O)CC(O)COC(C)=O (stereo not shown) [AVOCADENE ACETATE] | -0.39 | -38.4 | -0.47 | – | – | – | – |
| C=CCCCCCCCCCCCc1ccco1 [AVOCADENOFURAN] | -21.47 | -32.5 | -0.41 | – | – | – | – |
| COc1ccc(-c2coc3cc(O)cc(O)c3c2=O)cc1 [BIOCHANIN A] | 14.14 | 6.9 | 0.10 | – | – | – | – |
| O=C(O)CC[N+](=O)[O-] [BOVINOCIDIN] | 41.04 | -25.1 | -0.32 | – | – | – | – |
